The record followed here is paper PMC8173610 (Biochemistry, 2021).

pIC50: −log10 of the molar value.

The target of the assay is microtubule-associated protein tau (Homo sapiens, UniProt P10636). The assay is classed as biochemical.
Sequence of microtubule-associated protein tau (P10636 1-441 isoform P10636-8): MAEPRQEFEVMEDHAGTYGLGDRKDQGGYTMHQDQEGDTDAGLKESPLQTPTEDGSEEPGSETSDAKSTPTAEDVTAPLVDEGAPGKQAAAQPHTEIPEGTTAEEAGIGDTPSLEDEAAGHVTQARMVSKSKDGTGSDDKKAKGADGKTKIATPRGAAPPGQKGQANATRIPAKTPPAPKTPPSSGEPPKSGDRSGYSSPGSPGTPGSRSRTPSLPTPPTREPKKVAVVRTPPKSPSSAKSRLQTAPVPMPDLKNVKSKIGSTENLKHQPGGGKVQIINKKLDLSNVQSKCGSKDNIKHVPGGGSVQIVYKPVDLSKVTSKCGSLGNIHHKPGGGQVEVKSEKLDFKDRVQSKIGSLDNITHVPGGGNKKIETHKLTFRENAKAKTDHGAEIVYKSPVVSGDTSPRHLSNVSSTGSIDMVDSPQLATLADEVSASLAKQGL

Usually pIC50 stands for the negative decadic logarithm of the IC50, by convention in mol/L. Consider `CCCCCCCCCc1cc2cc(O)c(C)c(O)c2cn1` [ANTC-15, 7-methyl-3-nonylisoquinoline-6,8-diol], for which the pIC50 is 4.46.
